The record followed here is patent US4757133A, “Physiologically active peptide” (Eisai Co., Ltd., priority 1986, dated 1988).

Peptide text beside a SMILES is read from it.

The test system of the test is smooth muscle of a bronchus. Kind of test: Relaxation of muscle of bronchus removed from guinea pig (histamine-contracted tracheal chain, four-point assay). To be noted: isolated guinea pig trachea chain, 6.5×10^-6 M histamine in Krebs solution at 37° C.; samples at 10^-5 M; area value of VIP-NH2 taken as 100%. An excerpt: A. Determination on Relaxation of Muscle of Bronchus Removed from Guinea Pig:
The juglar vein of a male guinea pig weighing 300 g or more is cut, causing the guinea pig to be bled to death. The guinea pig undergoes thoracotomy. Immediately after the thoracotomy, 3 cm of the trachea is taken out. The trachea is immediately put in a Krebs solution. It is then cut into seven equal rings, and the cartilages are connected to one another with a cotton yarn to form a chain. Subsequently, the smooth muscle parts and cartilages opposite them are cut, so that the smooth muscle parts can be connected to one another. The preparation thus prepared is placed in an isothermic glass cell having an internal capacity of about 7 ml and suspended from above. The lower part of the preparation is fixed, while the upper part is connected to an isometric transducer, to which 0.5 g of a load has been applied, in order to determine the relaxation reaction. Sufficient amounts of 95% oxygen and 5% carbon dioxide gas are blown into the preparation. Further, a Krebs solution of 37° C. containing 6.5×10^-6 M histamine is dropped on the preparation from above at a flow rate of 3.3 ml/min. The relaxation reaction takes place to an extent proportional to the amount of a sample added to the dropped solution. By utilizing this relationship, the relaxation activity against bronchial smooth muscle with respect to the substance of the present invention is compared with that of VIP-NH2. VIP-NH2 is used at a concentration of 10^-5 M and dropped in amounts of 40 μl and 80 μl. The substance of the present invention is also used at a concentration of 10^-5 M and dropped in amounts of 10 μl and 20 μl. The value of the area (height×time) in relaxation of each case is determined. The specific activities are obtained by taking the area value of VIP-NH2 as 100% and determining the relative ratio of the area value of each case. Thus, the relaxation reactions are compared by the four-point assay method, with respect to the above-mentioned determination method, reference may be made to the following articles (e) and (f):
(e) W. L. M. Perry, Pharmacological Experiments on Isolated Preparations: E & S Livingstone LTD. 1968; and
(f) Castillo, De Beer, J. Phamac. Exp. Ther. 90, 104 (1947).
Consider `CC[C@H](C)[C@H](NC(=O)[C@H](CO)NC(=O)[C@H](CC(N)=O)NC(=O)[C@H](CC(C)C)NC(=O)[C@H](Cc1ccc(O)cc1)NC(=O)[C@H](CCCCN)NC(=O)[C@H](CCCCN)NC(=O)[C@@H](NC(=O)[C@H](C)NC(=O)[C@H](CCSC)NC(=O)[C@H](CCC(N)=O)NC(=O)[C@H](CCCCN)NC(=O)[C@H](CCCNC(=N)N)NC(=O)[C@H](CC(C)C)NC(=O)[C@H](CCCNC(=N)N)NC(=O)[C@@H](NC(=O)[C@H](Cc1ccc(O)cc1)NC(=O)[C@H](CC(N)=O)NC(=O)[C@H](CC(=O)O)NC(=O)[C@@H](NC(=O)[C@H](Cc1ccccc1)NC(=O)[C@@H](NC(=O)[C@H](C)NC(=O)[C@H](CC(=O)O)NC(=O)[C@H](CO)NC(=O)[C@@H](N)Cc1c[nH]cn1)C(C)C)[C@@H](C)O)[C@@H](C)O)C(C)C)C(=O)N[C@@H](CC(C)C)C(=O)N[C@@H](CC(N)=O)C(=O)NCC(=O)N[C@@H](CCCCN)C(=O)N[C@@H](CCCNC(=N)N)C(=O)O` [X=Met Y=Lys-Arg-OH], for which the “A: specific activity (%) obtained by method A (relaxation area value relative to VIP-NH2)” value is 460%. As for `CC[C@H](C)[C@H](NC(=O)[C@H](CO)NC(=O)[C@H](CC(N)=O)NC(=O)[C@H](CC(C)C)NC(=O)[C@H](Cc1ccc(O)cc1)NC(=O)[C@H](CCCCN)NC(=O)[C@H](CCCCN)NC(=O)[C@@H](NC(=O)[C@H](C)NC(=O)[C@H](CC(C)C)NC(=O)[C@H](CCC(N)=O)NC(=O)[C@H](CCCCN)NC(=O)[C@H](CCCNC(=N)N)NC(=O)[C@H](CC(C)C)NC(=O)[C@H](CCCNC(=N)N)NC(=O)[C@@H](NC(=O)[C@H](Cc1ccc(O)cc1)NC(=O)[C@H](CC(N)=O)NC(=O)[C@H](CC(=O)O)NC(=O)[C@@H](NC(=O)[C@H](Cc1ccccc1)NC(=O)[C@@H](NC(=O)[C@H](C)NC(=O)[C@H](CC(=O)O)NC(=O)[C@H](CO)NC(=O)[C@@H](N)Cc1c[nH]cn1)C(C)C)[C@@H](C)O)[C@@H](C)O)C(C)C)C(=O)N[C@@H](CC(C)C)C(=O)N[C@@H](CC(N)=O)C(=O)NCC(=O)N[C@@H](CCCCN)C(N)=O` [X=Leu Y=Lys-NH2] (H-HSDAVFTDNYTRLRKQLAVKKYLNSILNGK-NH2), the “A: specific activity (%) obtained by method A (relaxation area value relative to VIP-NH2)” value was 300%. For `CC[C@H](C)[C@H](NC(=O)[C@H](CO)NC(=O)[C@H](CC(N)=O)NC(=O)[C@H](CC(C)C)NC(=O)[C@H](Cc1ccc(O)cc1)NC(=O)[C@H](CCCCN)NC(=O)[C@H](CCCCN)NC(=O)[C@@H](NC(=O)[C@H](C)NC(=O)[C@H](CCSC)NC(=O)[C@H](CCC(N)=O)NC(=O)[C@H](CCCCN)NC(=O)[C@H](CCCNC(=N)N)NC(=O)[C@H](CC(C)C)NC(=O)[C@H](CCCNC(=N)N)NC(=O)[C@@H](NC(=O)[C@H](Cc1ccc(O)cc1)NC(=O)[C@H](CC(N)=O)NC(=O)[C@H](CC(=O)O)NC(=O)[C@@H](NC(=O)[C@H](Cc1ccccc1)NC(=O)[C@@H](NC(=O)[C@H](C)NC(=O)[C@H](CC(=O)O)NC(=O)[C@H](CO)NC(=O)[C@@H](N)Cc1c[nH]cn1)C(C)C)[C@@H](C)O)[C@@H](C)O)C(C)C)C(=O)N[C@@H](CC(C)C)C(=O)N[C@@H](CC(N)=O)C(=O)NCC(=O)N[C@@H](CCCNC(=N)N)C(=O)O` [X=Met Y=Arg-OH], the “A: specific activity (%) obtained by method A (relaxation area value relative to VIP-NH2)” value is on record as 220%. Consider `CC[C@H](C)[C@H](NC(=O)[C@H](CO)NC(=O)[C@H](CC(N)=O)NC(=O)[C@H](CC(C)C)NC(=O)[C@H](Cc1ccc(O)cc1)NC(=O)[C@H](CCCCN)NC(=O)[C@H](CCCCN)NC(=O)[C@@H](NC(=O)[C@H](C)NC(=O)[C@H](CCSC)NC(=O)[C@H](CCC(N)=O)NC(=O)[C@H](CCCCN)NC(=O)[C@H](CCCNC(=N)N)NC(=O)[C@H](CC(C)C)NC(=O)[C@H](CCCNC(=N)N)NC(=O)[C@@H](NC(=O)[C@H](Cc1ccc(O)cc1)NC(=O)[C@H](CC(N)=O)NC(=O)[C@H](CC(=O)O)NC(=O)[C@@H](NC(=O)[C@H](Cc1ccccc1)NC(=O)[C@@H](NC(=O)[C@H](C)NC(=O)[C@H](CC(=O)O)NC(=O)[C@H](CO)NC(=O)[C@@H](N)Cc1c[nH]cn1)C(C)C)[C@@H](C)O)[C@@H](C)O)C(C)C)C(=O)N[C@@H](CC(C)C)C(=O)N[C@@H](CC(N)=O)C(=O)NCC(=O)N[C@@H](CCCCN)C(=O)O` [X=Met Y=Lys-OH], for which the “A: specific activity (%) obtained by method A (relaxation area value relative to VIP-NH2)” value is recorded as 300%. Next, `CC[C@H](C)[C@H](NC(=O)[C@H](CO)NC(=O)[C@H](CC(N)=O)NC(=O)[C@H](CC(C)C)NC(=O)[C@H](Cc1ccc(O)cc1)NC(=O)[C@H](CCCCN)NC(=O)[C@H](CCCCN)NC(=O)[C@@H](NC(=O)[C@H](C)NC(=O)[C@H](CC(C)C)NC(=O)[C@H](CCC(N)=O)NC(=O)[C@H](CCCCN)NC(=O)[C@H](CCCNC(=N)N)NC(=O)[C@H](CC(C)C)NC(=O)[C@H](CCCNC(=N)N)NC(=O)[C@@H](NC(=O)[C@H](Cc1ccc(O)cc1)NC(=O)[C@H](CC(N)=O)NC(=O)[C@H](CC(=O)O)NC(=O)[C@@H](NC(=O)[C@H](Cc1ccccc1)NC(=O)[C@@H](NC(=O)[C@H](C)NC(=O)[C@H](CC(=O)O)NC(=O)[C@H](CO)NC(=O)[C@@H](N)Cc1c[nH]cn1)C(C)C)[C@@H](C)O)[C@@H](C)O)C(C)C)C(=O)N[C@@H](CC(C)C)C(=O)N[C@@H](CC(N)=O)C(=O)NCC(=O)N[C@@H](CCCCN)C(=O)O` [X=Leu Y=Lys-OH] (H-HSDAVFTDNYTRLRKQLAVKKYLNSILNGK-OH): 410%. For `CC[C@H](C)[C@H](NC(=O)[C@H](CO)NC(=O)[C@H](CC(N)=O)NC(=O)[C@H](CC(C)C)NC(=O)[C@H](Cc1ccc(O)cc1)NC(=O)[C@H](CCCCN)NC(=O)[C@H](CCCCN)NC(=O)[C@@H](NC(=O)[C@H](C)NC(=O)[C@H](CCSC)NC(=O)[C@H](CCC(N)=O)NC(=O)[C@H](CCCCN)NC(=O)[C@H](CCCNC(=N)N)NC(=O)[C@H](CC(C)C)NC(=O)[C@H](CCCNC(=N)N)NC(=O)[C@@H](NC(=O)[C@H](Cc1ccc(O)cc1)NC(=O)[C@H](CC(N)=O)NC(=O)[C@H](CC(=O)O)NC(=O)[C@@H](NC(=O)[C@H](Cc1ccccc1)NC(=O)[C@@H](NC(=O)[C@H](C)NC(=O)[C@H](CC(=O)O)NC(=O)[C@H](CO)NC(=O)[C@@H](N)Cc1c[nH]cn1)C(C)C)[C@@H](C)O)[C@@H](C)O)C(C)C)C(=O)N[C@@H](CC(C)C)C(=O)N[C@@H](CC(N)=O)C(=O)NCC(=O)O` [X=Met Y=OH], the “A: specific activity (%) obtained by method A (relaxation area value relative to VIP-NH2)” value amounted to 70%.

Consider `CC[C@H](C)[C@H](NC(=O)[C@H](CO)NC(=O)[C@H](CC(N)=O)NC(=O)[C@H](CC(C)C)NC(=O)[C@H](Cc1ccc(O)cc1)NC(=O)[C@H](CCCCN)NC(=O)[C@H](CCCCN)NC(=O)[C@@H](NC(=O)[C@H](C)NC(=O)[C@H](CCSC)NC(=O)[C@H](CCC(N)=O)NC(=O)[C@H](CCCCN)NC(=O)[C@H](CCCNC(=N)N)NC(=O)[C@H](CC(C)C)NC(=O)[C@H](CCCNC(=N)N)NC(=O)[C@@H](NC(=O)[C@H](Cc1ccc(O)cc1)NC(=O)[C@H](CC(N)=O)NC(=O)[C@H](CC(=O)O)NC(=O)[C@@H](NC(=O)[C@H](Cc1ccccc1)NC(=O)[C@@H](NC(=O)[C@H](C)NC(=O)[C@H](CC(=O)O)NC(=O)[C@H](CO)NC(=O)[C@@H](N)Cc1c[nH]cn1)C(C)C)[C@@H](C)O)[C@@H](C)O)C(C)C)C(=O)N[C@@H](CC(C)C)C(=O)N[C@@H](CC(N)=O)C(=O)NCC(=O)N[C@@H](CCCCN)C(N)=O` [X=Met Y=Lys-NH2], for which the “A: specific activity (%) obtained by method A (relaxation area value relative to VIP-NH2)” value came out at 140%. As to `CC[C@H](C)[C@H](NC(=O)[C@H](CO)NC(=O)[C@H](CC(N)=O)NC(=O)[C@H](CC(C)C)NC(=O)[C@H](Cc1ccc(O)cc1)NC(=O)[C@H](CCCCN)NC(=O)[C@H](CCCCN)NC(=O)[C@@H](NC(=O)[C@H](C)NC(=O)[C@H](CC(C)C)NC(=O)[C@H](CCC(N)=O)NC(=O)[C@H](CCCCN)NC(=O)[C@H](CCCNC(=N)N)NC(=O)[C@H](CC(C)C)NC(=O)[C@H](CCCNC(=N)N)NC(=O)[C@@H](NC(=O)[C@H](Cc1ccc(O)cc1)NC(=O)[C@H](CC(N)=O)NC(=O)[C@H](CC(=O)O)NC(=O)[C@@H](NC(=O)[C@H](Cc1ccccc1)NC(=O)[C@@H](NC(=O)[C@H](C)NC(=O)[C@H](CC(=O)O)NC(=O)[C@H](CO)NC(=O)[C@@H](N)Cc1c[nH]cn1)C(C)C)[C@@H](C)O)[C@@H](C)O)C(C)C)C(=O)N[C@@H](CC(C)C)C(=O)N[C@@H](CC(N)=O)C(=O)NCC(=O)N[C@@H](CCCCN)C(=O)N[C@@H](CCCNC(=N)N)C(=O)O` [X=Leu Y=Lys-Arg-OH] (H-HSDAVFTDNYTRLRKQLAVKKYLNSILNGKR-OH), the “A: specific activity (%) obtained by method A (relaxation area value relative to VIP-NH2)” value stood at 410%.
